Test results from patent publication US20250346584A1, “NOVEL KAPPA OPIOID LIGANDS” (The Scripps Research Institute, priority 2012, published 2025).

Molecular target: kappa opioid receptor (OPRK1) (Homo sapiens (Human), UniProt P41145)
Assay: OPRK1 antagonist assay (b-arrestin-2-TEV / b-lactamase reporter cell line, EC80 U-50488 challenge)
Format: cell-based
Settings: read-out: IC50 nM (% inhib if other than 50%); antagonist mode vs EC80 U-50488; NA = not active at concentrations up to 10 μM

Chain of kappa opioid receptor (OPRK1) (P41145 whole entry): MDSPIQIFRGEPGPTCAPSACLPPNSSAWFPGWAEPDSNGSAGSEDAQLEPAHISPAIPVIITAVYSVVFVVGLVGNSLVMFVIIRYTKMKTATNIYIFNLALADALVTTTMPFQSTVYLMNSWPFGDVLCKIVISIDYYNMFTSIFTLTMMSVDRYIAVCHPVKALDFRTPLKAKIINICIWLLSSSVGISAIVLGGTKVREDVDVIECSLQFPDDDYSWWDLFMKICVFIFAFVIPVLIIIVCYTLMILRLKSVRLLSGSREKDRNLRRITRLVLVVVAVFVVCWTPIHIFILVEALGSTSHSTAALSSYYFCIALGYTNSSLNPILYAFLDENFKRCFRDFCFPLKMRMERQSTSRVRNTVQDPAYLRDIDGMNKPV

| IC50 [nM] | SMILES |
| --- | --- |
| 12 | CO[C@H]1CN(c2nc3cc(Cl)ccc3cc2-c2nc(C)no2)CC[C@H]1NC1CCCCC1 [compound 537] |
| 9 | Cc1noc(-c2cc3ccccc3nc2N2CCC(NC3CCCCC3O)CC2)n1 (stereo not shown) [compound 230] |
| 7160 | COC1CN(c2nc3ccccc3cc2C2=NCC(C)O2)CCC1NC1CCCCC1 (stereo not shown) [compound 258] |
| 23 | CCOC(=O)c1nc2cc(C)ccc2nc1N1CCC(NC2CCCCC2)C(OC)C1 (stereo not shown) [compound 353] |
| 5 | Cc1ccc2cc(-c3nc(C)no3)c(N3CCC(NC4CCCCC4)C(CO)C3)nc2c1 (stereo not shown) [compound 229] |
| 115 | Cc1nc(-c2cc3ccc(F)c(C)c3nc2N2CCC(N[C@H]3CCCC[C@@H]3O)CC2)no1 [compound 510] |
| 98 | Cc1noc(-c2cc3cccc(C)c3nc2N2CCC(NC3CCOCC3)CC2)n1 [compound 275] |
| 1300 | Cc1noc(-c2cc(C3CC3)cnc2N2CC[C@@H](NC3CCCCC3)[C@H](O)C2)n1 [compound 155] |
| 287 | COC(=O)c1cc(Br)cnc1N1CCC(NC2CCCC2O)CC1 (stereo not shown) [compound 3] |
| 23 | CCOC(=O)c1cc(Br)cnc1N1CC[C@@H](NC2CCCCC2)[C@H](O)C1 [compound 134] |

Further lines, the compound ahead of its results:

| SMILES | IC50 [nM] |
| --- | --- |
| Cc1cnc(N2CCC(NC3CCCCC3)C(CO)C2)c(C=O)c1 (stereo not shown) [compound 216] | 4500 |
| COC(=O)c1cc(Br)cnc1N1CCC(NC2CCCCC2)C1 (stereo not shown) [compound 14] | 185 |
| COC(=O)c1cc(I)cnc1N1CCC(NC2CCCCC2O)CC1 (stereo not shown) [compound 37] | 142 |
| CCOC(=O)c1cc2cc(C)ccc2nc1N1CCC(NC2CCCCC2)C(CO)C1 (stereo not shown) [compound 288] | 15 |
| COC1CN(c2nc(C)c(C)nc2-c2nc(C)no2)CCC1NC1CCCCC1 (stereo not shown) [compound 390] | 1920 |
| CO[C@H]1CN(c2nc3ccc(C)cc3cc2-c2nc(C)no2)CC[C@H]1NC1CCOCC1 [compound 500] | 423 |
| COC(=O)c1cc(Br)cnc1N1CC2C(C1)C2NC1CCCCC1 (stereo not shown) [C27] | 21000 |
| COC(=O)c1cc(Br)cnc1N1CCC(NC2CC3CCC2(C)C3(C)C)CC1 (stereo not shown) [compound 22] | 10000 |
| Cc1nc(-c2cc3cc(C)c(F)cc3nc2N2CCC(NC3CCCCC3)CC2)no1 [compound 495] | 13 |
